Reference: ChEMBL document CHEMBL5214910, “Rational Design of Dipicolylamine-Containing Carbazole Amphiphiles Combined with Zn2+ as Potent Broad-Spectrum Antibacterial Agents with a Membrane-Disruptive Mechanism” (J Med Chem, 2021)

Assays:
[1] = tested on: Staphylococcus aureus; assay: Antibacterial activity against Methicillin-resistant Staphylococcus aureus N315 assessed as inhibition of bacterial growth incubated for 24 hrs in the presence of 12.5 ug/mL Zn2+ by Muller hinton broth based dilution assay; type: functional
[2] = tested on: Acinetobacter baumannii; assay: Antibacterial activity against Acinetobacter baumannii ATCC 17978 assessed as inhIbition of bacterial growth incubated for 24 hrs by Muller hinton broth based dilution assay; type: functional
[3] = tested on: Staphylococcus aureus; assay: Antibacterial activity against Methicillin-resistant Staphylococcus aureus NCTC10442 assessed as inhibition of bacterial growth incubated for 24 hrs by Muller hinton broth based dilution assay; type: functional
[4] = tested on: Escherichia coli; assay: Antibacterial activity Escherichia coli ATCC 25922 assessed as inhibition of bacterial growth incubated for 24 hrs in the presence of 12.5 ug/mL Zn2+ by Muller hinton broth based dilution assay; type: functional
[5] = tested on: Acinetobacter baumannii; assay: Antibacterial activity against Acinetobacter baumannii R2889 assessed as inhIbition of bacterial growth incubated for 24 hrs in the presence of 12.5 ug/mL Zn2+ by Muller hinton broth based dilution assay; type: functional
[6] = tested on: Acinetobacter baumannii; assay: Antibacterial activity against Acinetobacter baumannii R2889 assessed as inhIbition of bacterial growth incubated for 24 hrs by Muller hinton broth based dilution assay; type: functional
[7] = tested on: Acinetobacter baumannii; assay: Antibacterial activity against Acinetobacter baumannii ATCC 17978 assessed as inhIbition of bacterial growth incubated for 24 hrs in the presence of 12.5 ug/mL Zn2+ by Muller hinton broth based dilution assay; type: functional
[8] = tested on: Pseudomonas aeruginosa; assay: Antibacterial activity Pseudomonas aeruginosa ATCC 9027 assessed as inhibition of bacterial growth incubated for 24 hrs by Muller hinton broth based dilution assay; type: functional
[9] = tested on: Escherichia coli; assay: Antibacterial activity Escherichia coli ATCC 25922 assessed as inhibition of bacterial growth incubated for 24 hrs by Muller hinton broth based dilution assay; type: functional
[10] = tested on: Staphylococcus aureus; assay: Antibacterial activity against Staphylococcus aureus ATCC 29213 assessed as inhibition of bacterial growth incubated for 24 hrs in the presence of 12.5 ug/mL Zn2+ by Muller hinton broth based dilution assay; type: functional
[11] = tested on: Staphylococcus aureus; assay: Antibacterial activity against Methicillin-resistant Staphylococcus aureus N315 assessed as inhibition of bacterial growth incubated for 24 hrs by Muller hinton broth based dilution assay; type: functional
[12] = tested on: Pseudomonas aeruginosa; assay: Antibacterial activity Pseudomonas aeruginosa ATCC 9027 assessed as inhibition of bacterial growth incubated for 24 hrs in the presence of 12.5 ug/mL Zn2+ by Muller hinton broth based dilution assay; type: functional
[13] = tested on: Staphylococcus aureus; assay: Antibacterial activity against Staphylococcus aureus ATCC 29213 assessed as inhibition of bacterial growth incubated for 24 hrs by Muller hinton broth based dilution assay; type: functional
[14] = tested on: Staphylococcus aureus; assay: Antibacterial activity against Methicillin-resistant Staphylococcus aureus NCTC10442 assessed as inhibition of bacterial growth incubated for 24 hrs in the presence of 12.5 ug/mL Zn2+ by Muller hinton broth based dilution assay; type: functional
[15] = Hemolytic activity in rabbit RBC incubated for 1 hrs in the presence of 12.5 ug/mL Zn2+ by fluorescence based microplate reader assay; type: toxicity, cell-based, Oryctolagus cuniculus, Erythrocyte; conditions: rabbit red blood cells (erythrocytes)
[16] = Hemolytic activity in rabbit RBC incubated for 1 hrs by fluorescence based microplate reader assay; type: toxicity, cell-based, Oryctolagus cuniculus, Erythrocyte; conditions: rabbit red blood cells (erythrocytes)
[17] = tested on: Staphylococcus aureus; assay: Antibacterial activity against Staphylococcus aureus ATCC 29213 in cyclophosphamide immunosuppressed C57BL/6 mouse model of bacterial keratitis assessed as log reduction in viable bacterial count in infected cornea at 5 % pre-infected with bacteria for 24 hrs followed by topical administration of compound four times a day for 3 days; type: functional; conditions: route top, time 3 day

CC(C)=CCn1c2ccccc2c2c(OCC(O)CN(C)C)cccc21 (stereo not drawn)
6.25 µg/mL: MIC [1] | MIC [3] | MIC [10] | MIC [11] | MIC [13] | MIC [14]
> 50 µg/mL: MIC [8] | MIC [12]
12.5 µg/mL: MIC [2] | MIC [5] | MIC [6] | MIC [7]
25 µg/mL: MIC [4] | MIC [9]

CCCn1c2ccccc2c2c(OCC(O)CN(Cc3ccccn3)Cc3ccccn3)cccc21 (stereo not drawn)
6.25 µg/mL: MIC [2] | MIC [4] | MIC [5] | MIC [6] | MIC [12]
12.5 µg/mL: MIC [9]
1.56 µg/mL: MIC [11] | MIC [14]
3.12 µg/mL: MIC [3] | MIC [7] | MIC [13]
0.78 µg/mL: MIC [1] | MIC [10]
> 200 µg/mL: HC50 at 1 h [15] | HC50 at 1 h [16]
> 50 µg/mL: MIC [8]

CCCCCn1c2ccccc2c2c(OCC3CO3)cccc21 (stereo not drawn)
> 50 µg/mL: MIC [2] | MIC [3] | MIC [6] | MIC [8] | MIC [9] | MIC [11] | MIC [13]
> 200 µg/mL: HC50 at 1 h [16]

OC(COc1cccc2[nH]c3ccccc3c12)CN(Cc1ccccn1)Cc1ccccn1 (stereo not drawn)
25 µg/mL: MIC [3] | MIC [11] | MIC [13]
6.25 µg/mL: MIC [1] | MIC [10]
> 200 µg/mL: HC50 at 1 h [15] | HC50 at 1 h [16]
50 µg/mL: MIC [2] | MIC [7]
12.5 µg/mL: MIC [12] | MIC [14]
> 50 µg/mL: MIC [4] | MIC [5] | MIC [6] | MIC [8] | MIC [9]

O=C(O)c1cn(C2CC2)c2cc(N3CCNCC3)c(F)cc2c1=O [CIPROFLOXACIN]
0.39 µg/mL: MIC [1] | MIC [2] | MIC [3] | MIC [7] | MIC [10] | MIC [11] | MIC [13] | MIC [14]
0.049 µg/mL: MIC [4] | MIC [9]
0.195 µg/mL: MIC [8] | MIC [12]
0.78 µg/mL: MIC [5] | MIC [6]

CN[C@H](CC(C)C)C(=O)N[C@H]1C(=O)N[C@@H](CC(N)=O)C(=O)N[C@H]2C(=O)N[C@H]3C(=O)N[C@H](C(=O)N[C@H](C(=O)O)c4cc(O)cc(O)c4-c4cc3ccc4O)[C@H](O)c3ccc(c(Cl)c3)Oc3cc2cc(c3O[C@@H]2O[C@H](CO)[C@@H](O)[C@H](O)[C@H]2O[C@H]2C[C@](C)(N)[C@H](O)[C@H](C)O2)Oc2ccc(cc2Cl)[C@H]1O [VANCOMYCIN]
5.4: log(activity) [17]
1.56 µg/mL: MIC [1] | MIC [3] | MIC [11] | MIC [14]
> 50 µg/mL: MIC [4] | MIC [5] | MIC [6] | MIC [8] | MIC [9] | MIC [12]
0.78 µg/mL: MIC [10] | MIC [13]
50 µg/mL: MIC [2] | MIC [7]

CCN(CC)CC(O)COc1cccc2c1c1ccccc1n2CC=C(C)C (stereo not drawn)
25 µg/mL: MIC [5] | MIC [6]
6.25 µg/mL: MIC [1] | MIC [3] | MIC [10] | MIC [11] | MIC [13] | MIC [14]
50 µg/mL: MIC [2] | MIC [4] | MIC [7]
> 50 µg/mL: MIC [8] | MIC [9] | MIC [12]

c1ccc2c(c1)[nH]c1cccc(OCC3CO3)c12 (stereo not drawn)
> 50 µg/mL: MIC [2] | MIC [3] | MIC [6] | MIC [8] | MIC [9] | MIC [11] | MIC [13]
> 200 µg/mL: HC50 at 1 h [16]

CCCCCCCCCn1c2ccccc2c2c(OCC3CO3)cccc21 (stereo not drawn)
> 200 µg/mL: HC50 at 1 h [16]
> 50 µg/mL: MIC [2] | MIC [3] | MIC [6] | MIC [8] | MIC [9] | MIC [11] | MIC [13]

CC(C)=CCn1c2ccccc2c2c(OCC3CO3)cccc21 (stereo not drawn)
> 200 µg/mL: HC50 at 1 h [16]
> 50 µg/mL: MIC [2] | MIC [3] | MIC [6] | MIC [8] | MIC [9] | MIC [11] | MIC [13]

CCCCCCCCCn1c2ccccc2c2c(OCC(O)CN(Cc3ccccn3)Cc3ccccn3)cccc21 (stereo not drawn)
3.12 µg/mL: MIC [10] | MIC [13]
0.78 µg/mL: MIC [1] | MIC [11]
6.25 µg/mL: MIC [3] | MIC [14]
12.5 µg/mL: MIC [7]
> 200 µg/mL: HC50 at 1 h [15] | HC50 at 1 h [16]
> 50 µg/mL: MIC [2] | MIC [4] | MIC [5] | MIC [6] | MIC [8] | MIC [9] | MIC [12]

CCCCCn1c2ccccc2c2c(OCC(O)CN(Cc3ccccn3)Cc3ccccn3)cccc21 (stereo not drawn)
> 200 µg/mL: HC50 at 1 h [15] | HC50 at 1 h [16]
1.56 µg/mL: MIC [3] | MIC [4] | MIC [10] | MIC [11] | MIC [13]
6.25 µg/mL: MIC [9] | MIC [12]
0.78 µg/mL: MIC [1] | MIC [14]
> 50 µg/mL: MIC [8]
3.12 µg/mL: MIC [2] | MIC [5] | MIC [6] | MIC [7]
